Experimental data as given in US20190282518A1 (Bryn Pharma, LLC, priority 2018, published 2019).

Tested on: histamine induced nasal congestion
Details: 5% histamine aerosol, dogs

## NCCc1c[nH]cn1 [Histamine]
  induction of nasal congestion: induced congestion in all animals to varying degrees
